{"source": "a flash point compilation (Sun et al. 2020)"}
{"units": {"flash point": "°C"}}
{"smiles": "C[C@@H]1CCCC[C@H]1C", "note": "(relative stereo) [trans-1,2-dimethylcyclohexane]", "flash point": 7}
{"smiles": "CC1(C)CCCCC1", "note": "[1,1-dimethylcyclohexane]", "flash point": 7}
{"smiles": "Cc1cc(C)c(C)c(C)c1", "note": "[1,2,3,5-tetramethylbenzene]", "flash point": 63}
{"smiles": "CC1=CC(C)CCC1", "note": "(centres undefined) [1,3-dimethylcyclohexene]", "flash point": 12}
{"smiles": "CCC(C)(C)C(C)(C)C", "note": "[2,2,3,3-tetramethylpentane]", "flash point": 16}
{"smiles": "CCCCC(C)(C)C", "note": "[2,2-dimethylhexane]", "flash point": -3}
{"smiles": "CCCCCCC(C)(C)C", "note": "[2,2-dimethyloctane]", "flash point": 31}
{"smiles": "CCCCCC(C)C(C)C", "note": "(centres undefined) [2,3-dimethyloctane]", "flash point": 36}
{"smiles": "CCC(C)CCC(C)C", "note": "(centres undefined) [2,5-dimethylheptane]", "flash point": 15}
{"smiles": "C=C(CC)CC", "note": "[2-ethyl-1-butene]", "flash point": -26}
{"smiles": "CC#CCCCC", "note": "[2-heptyne]", "flash point": 2}
{"smiles": "C=C(C)CC", "note": "[2-methyl-1-butene]", "flash point": -47}
{"smiles": "CCCCCCC(C)C", "note": "[2-methyloctane]", "flash point": 24}
{"smiles": "C1=CC2CCC1C2", "note": "[2-norbornene]", "flash point": -14}
{"smiles": "C=CC(CC)CCC", "note": "(centres undefined) [3-ethyl-1-hexene]", "flash point": 1}
{"smiles": "C=CC(CC)CC", "note": "[3-ethyl-1-pentene]", "flash point": -17}
{"smiles": "CCC(C(C)C)C(C)C", "note": "[3-ethyl-2,4-dimethylpentane]", "flash point": 15}
{"smiles": "CC=C(CC)CC", "note": "[3-ethyl-2-pentene]", "flash point": -6}
{"smiles": "C=CC(C)CCC", "note": "(centres undefined) [3-methyl-1-hexene]", "flash point": -18}
{"smiles": "C=CCC(C)CCC", "note": "(centres undefined) [4-methyl-1-heptene]", "flash point": 2}
{"smiles": "CCCC(C)CCC", "note": "[4-methylheptane]", "flash point": 5}
{"smiles": "CCCC(CCC)CCC", "note": "[4-propylheptane]", "flash point": 41}
{"smiles": "C=CCC1CCCCC1", "note": "[allylcyclohexane]", "flash point": 29}
{"smiles": "C1CCC(C2CCCCC2)CC1", "note": "[bicyclohexyl]", "flash point": 92}
{"smiles": "C[C@@H]1CCC[C@H](C)C1", "note": "[cis-1,3-dimethylcyclohexane]", "flash point": 6}
{"smiles": "C/C=C\\CCCC", "note": "[cis-2-heptene]", "flash point": -8}
{"smiles": "CC/C=C\\CCC", "note": "[cis-3-heptene]", "flash point": -9}
{"smiles": "C/C=C\\C(C)C", "note": "[cis-4-methyl-2-pentene]", "flash point": -36}
{"smiles": "C1CC[C@H]2CCCC[C@H]2C1", "note": "[cis-decalin]", "flash point": 58}
{"smiles": "CC(C)C1CCCC1", "note": "[isopropylcyclopentane]", "flash point": 14}
{"smiles": "CCCCc1ccccc1", "note": "[n-butylbenzene]", "flash point": 50}
{"smiles": "CCCCC1CCCC1", "note": "[n-butylcyclopentane]", "flash point": 35}
{"smiles": "CCCCCC1CCCCC1", "note": "[n-pentylcyclohexane]", "flash point": 66}
{"smiles": "CCCC1CCCC1", "note": "[propylcyclopentane]", "flash point": 16}
{"smiles": "C/C=C/CCC", "note": "[trans-2-hexene]", "flash point": -27}
{"smiles": "CC/C=C/CC", "note": "[trans-3-hexene]", "flash point": -25}
{"remark": "another data set of the same source", "units": {"flash point": "°C"}}
{"smiles": "CCC(C)(C)CCl", "note": "[1-Chloro-2,2-dimethylbutane]", "flash point": 19.1}
{"smiles": "CCC(C)CCl", "note": "(centres undefined) [1-Chloro-2-methylbutane]", "flash point": 10}
{"remark": "another data set of the same source", "units": {"flash point": "°C"}}
{"smiles": "CCC(C)C(C)C(C)(C)C", "note": "(centres undefined) [2,2,3,4-Tetramethylhexane]", "flash point": 31}
{"smiles": "CCC(C)C(C)(C)C", "note": "(centres undefined) [2,2,3-Trimethylpentane]", "flash point": -3}
{"smiles": "CC(CC(C)(C)C)CC(C)(C)CC(C)(C)C", "note": "(centres undefined) [2,2,4,4,6,8,8-Heptamethylnonane]", "flash point": 95}
{"smiles": "CCC(C)(C)CC(C)(C)C", "note": "[2,2,4,4-Tetramethylhexane]", "flash point": 31}
{"smiles": "CCC(C)CC(C)(C)C", "note": "(centres undefined) [2,2,4-Trimethylhexane]", "flash point": 15}
{"smiles": "CCCCCC(C)(C)C", "note": "[2,2-Dimethylheptane]", "flash point": 24}
{"smiles": "CCCCC(C)(C)C", "note": "[2,2-Dimethylhexane]", "flash point": -4}
{"smiles": "CCCC(C)(C)C", "note": "[2,2-Dimethylpentane]", "flash point": -23}
{"smiles": "CC(C)(C)C", "note": "[2,2-Dimethylpropane]", "flash point": -65}
{"smiles": "CCCC(C)(C)C(C)C", "note": "[2,3,3-Trimethylhexane]", "flash point": 15}
{"smiles": "CCC(C)(C)C(C)C(C)C", "note": "(centres undefined) [2,3,4,4-Tetramethylhexane]", "flash point": 31}
{"smiles": "CC(C)C(C)C(C)C(C)C", "note": "(centres undefined) [2,3,4,5-Tetramethylhexane]", "flash point": 31}
{"smiles": "CC(C)C(C)C(C)C", "note": "[2,3,4-Trimethylpentane]", "flash point": -0}
{"smiles": "CCCCC(C)C(C)C", "note": "(centres undefined) [2,3-Dimethylheptane]", "flash point": 15}
{"smiles": "CCCCCC(C)C(C)C", "note": "(centres undefined) [2,3-Dimethyloctane]", "flash point": 41}
{"smiles": "CCC(C)(C)CC(C)C", "note": "[2,4,4-Trimethylhexane]", "flash point": 15}
{"smiles": "CC(C)CC(C)CC(C)C", "note": "[2,4,6-Trimethylheptane]", "flash point": 31}
{"smiles": "CCCC(C)CC(C)C", "note": "(centres undefined) [2,4-Dimethylheptane]", "flash point": 15}
{"smiles": "CCC(C)CC(C)C", "note": "(centres undefined) [2,4-Dimethylhexane]", "flash point": 10}
{"smiles": "CC(C)CCCCC(C)C", "note": "[2,7-Dimethyloctane]", "flash point": 41}
{"smiles": "CCCC(C)C", "note": "[2-Methylpentane]", "flash point": -23}
{"smiles": "CCC(C)(C)C(C)(C)CC", "note": "[3,3,4,4-Tetramethylhexane]", "flash point": 31}
{"smiles": "CCCC(C)(C)CC", "note": "[3,3-Dimethylhexane]", "flash point": -1}
{"smiles": "CCCCCC(C)(C)CC", "note": "[3,3-Dimethyloctane]", "flash point": 41}
{"smiles": "CCC(C)C(C)CC", "note": "(centres undefined) [3,4-Dimethylhexane]", "flash point": 4}
{"smiles": "CCC(C)CC(C)CC", "note": "(centres undefined) [3,5-Dimethylheptane]", "flash point": 15}
{"smiles": "CCCC(C)CC(C)CC", "note": "(centres undefined) [3,5-Dimethyloctane]", "flash point": 41}
{"smiles": "CCC(CC)C(C)(C)C", "note": "[3-Ethyl-2,2-dimethylpentane]", "flash point": 13}
{"smiles": "CCCCC(C)(CC)CC", "note": "[3-Ethyl-3-methylheptane]", "flash point": 41}
{"smiles": "CCC(C)C(CC)CC", "note": "(centres undefined) [3-Ethyl-4-methylhexane]", "flash point": 15}
{"smiles": "CCC(C)CC(CC)CC", "note": "(centres undefined) [3-Ethyl-5-methylheptane]", "flash point": 31}
{"smiles": "CCC(C)(CC)CC", "note": "[3-Methyl-3-ethylpentane]", "flash point": 3}
{"smiles": "CCCC(C)CC", "note": "(centres undefined) [3-Methylhexane]", "flash point": -15}
{"smiles": "CCCCCC(C)CC", "note": "(centres undefined) [3-Methyloctane]", "flash point": 24}
{"smiles": "CCC(C)CC", "note": "[3-Methylpentane]", "flash point": -32}
{"smiles": "CCCC(C)(C)CCC", "note": "[4,4-Dimethylheptane]", "flash point": 15}
{"smiles": "CCCC(CC)CCC", "note": "[4-Ethylheptane]", "flash point": 15}
{"remark": "another data set of the same source", "units": {"flash point": "°C"}}
{"smiles": "C[Si](C)(C)O[Si](C)(C)O[Si](C)(C)O[Si](C)(C)O[Si](C)(C)O[Si](C)(C)O[Si](C)(C)C", "note": "[Hexadecamethylheptasiloxane]", "flash point": 133.00}
{"smiles": "C[Si](C)(C)O[SiH2]O[Si](C)(C)C", "note": "[Hexamethyltrisiloxane]", "flash point": 20.00}
{"smiles": "CCCCCC[SiH](Cl)Cl", "note": "[Hexyldichlorosilane]", "flash point": 64.00}
{"smiles": "CCCCCC[SiH3]", "note": "[Hexylsilane]", "flash point": 12.00}
{"smiles": "CCCCCC[Si](OC)(OC)OC", "note": "[Hexyltrimethoxysilane]", "flash point": 62.00}
{"smiles": "C[Si](C)(C)I", "note": "[Iodotrimethylsilane]", "flash point": 15.00}
{"smiles": "C[Si](Cl)(c1ccccc1)c1ccccc1", "note": "[Methyldiphenylchlorosilane]", "flash point": 138.00}
{"smiles": "CC(=O)O[Si](C)(OC(C)=O)OC(C)=O", "note": "[Methyltriacetoxysilane]", "flash point": 85.00}
{"smiles": "CO[Si](C)(OC)OC", "note": "[Methyltrimethoxysilane]", "flash point": 11.00}
{"smiles": "C[Si](C)(C)O[Si](C)(C)O[Si](C)(C)O[Si](C)(C)O[Si](C)(C)O[Si](C)(C)O[Si](C)(C)O[Si](C)(C)C", "note": "[Octadecamethyloctasiloxane]", "flash point": 144.00}
{"smiles": "C[Si]1(C)O[Si](C)(C)O[Si](C)(C)O[Si](C)(C)O1", "note": "[Octamethylcyclotetrasiloxane]", "flash point": 57.00}
{"smiles": "C[Si](C)(C)O[Si](C)(C)O[Si](C)(C)C", "note": "[Octamethyltrisiloxane]", "flash point": 30.00}
{"smiles": "Cl[SiH](Cl)c1ccccc1", "note": "[Phenyldichlorosilane]", "flash point": 60.00}
{"smiles": "CCO[Si](OCC)(OCC)c1ccccc1", "note": "[Phenyltriethoxysilane]", "flash point": 120.00}
{"smiles": "CCCO[Si](OCCC)(OCCC)OCCC", "note": "[Tetra-n-propoxysilane]", "flash point": 95.00}
{"smiles": "C[Si](C)(C)O[Si](C)(C)O[Si](C)(C)O[Si](C)(C)O[Si](C)(C)O[Si](C)(C)C", "note": "[Tetradecamethylhexasiloxane]", "flash point": 102.00}
{"smiles": "CCO[Si](OCC)(OCC)OCC", "note": "[Tetraethoxysilane]", "flash point": 50.00}
{"smiles": "CC[Si](CC)(CC)CC", "note": "[Tetraethylsilane]", "flash point": 32.00}
{"smiles": "C=C[Si](C=C)(C=C)C=C", "note": "[Tetravinylsilane]", "flash point": 18.00}
{"smiles": "Clc1ccc([Si](Cl)(Cl)Cl)cc1", "note": "[Trichloro(p-chlorophenyl)silane]", "flash point": 123.90}
{"smiles": "CC[Si](Cl)(CC)CC", "note": "[Triethylchlorosilane]", "flash point": 30.00}
{"smiles": "CC(C)[SiH](C(C)C)C(C)C", "note": "[Triisopropylsilane]", "flash point": 37.00}
{"smiles": "C[Si](C)(C)Br", "note": "[Trimethylbromosilane]", "flash point": -3.00}
{"smiles": "C[Si](C)(C)c1ccccc1", "note": "[Trimethylphenylsilane]", "flash point": 40.00}
{"smiles": "C[Si](C)(C)OC(=O)C(F)(F)F", "note": "[Trimethylsilyltrifluoroacetate]", "flash point": 0.00}
{"smiles": "C[Si](C)(C)O[SiH](O[Si](C)(C)C)O[Si](C)(C)C", "note": "[Tris(trimethylsiloxy)silane]", "flash point": 50.00}
{"smiles": "C=C[Si](OCC)(OCC)OCC", "note": "[Vinyltriethoxysilane]", "flash point": 34.00}
{"smiles": "CCCC[Si](Cl)(Cl)Cl", "note": "[n-Butyltrichlorosilane]", "flash point": 54.00}
{"smiles": "CCCCCCC[Si](C)(Cl)Cl", "note": "[n-Heptylmethyldichlorosilane]", "flash point": 66.00}
{"smiles": "CCCCCCC[Si](Cl)(Cl)Cl", "note": "[n-Heptyltrichlorosilane]", "flash point": 64.00}
{"smiles": "CC(C)(C)[Si](Cl)(Cl)Cl", "note": "[t-Butyltrichlorosilane]", "flash point": 21.00}
{"remark": "another data set of the same source", "units": {"flash point": "°C"}}
{"smiles": "C[C@@H]1CCCC[C@H]1C", "note": "(relative stereo) [trans-1,2-dimethylcyclohexane]", "flash point": 6}
{"smiles": "C=C(CC)CC", "note": "[2-ethyl-1-butene]", "flash point": -20}
{"smiles": "C=C(C)CC", "note": "[2-methyl-1-butene]", "flash point": -34}
{"smiles": "C1=CC2CCC1C2", "note": "[2-norbornene]", "flash point": -15}
{"smiles": "C[C@@H]1CCC[C@H](C)C1", "note": "[cis-1,3-dimethylcyclohexane]", "flash point": 5}
{"smiles": "CCCCc1ccccc1", "note": "[n-butylbenzene]", "flash point": 59}
{"smiles": "C/C=C/CCC", "note": "[trans-2-hexene]", "flash point": -20}
{"remark": "another data set of the same source", "units": {"flash point": "°C"}}
{"smiles": "CC#CCCCC", "note": "[2-heptyne]", "flash point": 8}
